pIC50: −log10 of the molar value.
Assays:
[1] = target: Recombinant human MALT-1 (amino acids 340-824) (Homo sapiens (Human), UniProt Q9UDY8); assay: MALT-1 inhibition assay (fluorogenic substrate Ac-LRSR-Rh110-DP); assay type: biochemical; conditions: recombinant human MALT-1, substrate Ac-LRSR-Rh110-DP
Summary of the method: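 MALT-1 at 3 nM final was reacted with 10 μM Ac-LRSR-Rh110-DP, with substrate addition starting the reaction. Incubation ran 60 minutes at 25° C in the dark. Percent inhibition from fluorescence across doses was fitted to a 4-parameter logistic to give IC50.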

[2] = system: IL-2 secretion by human effector memory T cells (TEM); assay: Effector memory T cells IL-2 release assay; assay type: cell-based; conditions: T-cell; human CD4+ effector memory T cells, CD3/CD28 bead stimulation, 24 h; read-out: CD4TC IL2 IC50
Summary of the method: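 Human CD4+ effector memory T cells from healthy-donor buffy coats were stimulated with anti-CD3/CD28 Dynabeads and exposed to 10 semi-log compound doses (0.1% DMSO) for 24 h at 37 °C. Supernatant IL-2 was measured by HTRF, and IC50 came from a 4-parameter logistic fit to maximal IL-2. Viability was checked by flow cytometry.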

Chain of Recombinant human MALT-1 (amino acids 340-824) (Q9UDY8 340-824): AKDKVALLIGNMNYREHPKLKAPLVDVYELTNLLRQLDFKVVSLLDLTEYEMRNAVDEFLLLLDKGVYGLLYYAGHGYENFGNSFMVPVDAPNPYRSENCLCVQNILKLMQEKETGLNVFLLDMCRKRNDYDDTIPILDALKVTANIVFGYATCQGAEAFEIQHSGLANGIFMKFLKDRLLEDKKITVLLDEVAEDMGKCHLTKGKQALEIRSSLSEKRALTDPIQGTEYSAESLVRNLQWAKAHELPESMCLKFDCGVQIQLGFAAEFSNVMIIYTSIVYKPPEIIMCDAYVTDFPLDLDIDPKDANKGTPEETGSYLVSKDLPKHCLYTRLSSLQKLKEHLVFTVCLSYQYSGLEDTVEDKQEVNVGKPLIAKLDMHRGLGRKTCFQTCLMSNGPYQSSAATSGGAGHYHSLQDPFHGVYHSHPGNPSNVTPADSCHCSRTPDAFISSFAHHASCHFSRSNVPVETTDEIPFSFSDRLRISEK

Compound	pIC50 [1]	pIC50 [2]
CN(C(=O)C1CCS(=O)(=O)CC1)[C@@H](c1ccc(N2CCCc3c2cnc2cc(F)nn32)cc1)C(F)(F)F [CPD0021664, N-methyl-1,1-dioxo-N-[(1S)-2,2,2-trifluoro-1-(4-{4-fluoro-2,3,7,10-tetraazatricyclo[7.4.0.0^2,6]trideca-1(9),3,5,7-tetraen-10-yl}phenyl)ethyl]-1λ^6-thiane-4-carboxamide]	7.08	6.71
CN(C(=O)C1CCS(=O)(=O)CC1)[C@@H](c1ccc(N2CCCc3c2cnc2cc(F)nn32)nc1)C(F)(F)F [CPD0021665, N-methyl-1,1-dioxo-N-[(1S)-2,2,2-trifluoro-1-(6-{4-fluoro-2,3,7,10-tetraazatricyclo[7.4.0.0^2,6]trideca-1(9),3,5,7-tetraen-10-yl}pyridin-3-yl)ethyl]-1λ^6-thiane-4-carboxamide]	6.20	5.68
COC(=O)N(C)[C@@H](c1ccc(N2CCCc3c2cnc2cc(Cl)nn32)cc1)C(F)(F)F [CPD0021733, Methyl N-[(1S)-1-(4-{4-chloro-2,3,7,10-tetraazatricyclo[7.4.0.0^2,6]trideca-1(9),3,5,7-tetraen-10-yl}phenyl)-2,2,2-trifluoroethyl]-N-methylcarbamate]	6.47	6.39
CN(C(=O)CN1CCNCC1)[C@@H](c1ccc(N2CCCc3c2cnc2cc(Cl)nn32)cc1)C(F)(F)F [CPD0021745, N-[(1S)-1-(4-{4-chloro-2,3,7,10-tetraazatricyclo[7.4.0.0^2,6]trideca-1(9),3,5,7-tetraen-10-yl}phenyl)-2,2,2-trifluoroethyl]-N-methyl-2-(piperazin-1-yl)acetamide]	6.43	6.13
CN1CCN(CC(=O)N(C)[C@@H](c2ccc(N3CCCc4c3cnc3cc(Cl)nn43)cc2)C(F)(F)F)CC1 [CPD0021746, N-[(1S)-1-(4-{4-chloro-2,3,7,10-tetraazatricyclo[7.4.0.0^2,6]trideca-1(9),3,5,7-tetraen-10-yl}phenyl)-2,2,2-trifluoroethyl]-N-methyl-2-(4-methylpiperazin-1-yl)acetamide]	6.28	6.33
CN(C(=O)C1CCS(=O)(=O)CC1)[C@@H](c1ccc(N2CCCc3c2cnc2cc(Cl)nn32)c(F)c1)C(F)(F)F [CPD0021750, N-[(1S)-1-(4-{4-chloro-2,3,7,10-tetraazatricyclo[7.4.0.0^2,6]trideca-1(9),3,5,7-tetraen-10-yl}-3-fluorophenyl)-2,2,2-trifluoroethyl]-N-methyl-1,1-dioxo-1λ^6-thiane-4-carboxamide]	7.12	6.95
CN(C(=O)C1CCS(=O)(=O)CC1)[C@@H](c1ccc(N2CCCc3c2cnc2c(Cl)cnn32)cc1)C(F)(F)F [CPD0021751, N-[(1S)-1-(4-{5-chloro-2,3,7,10-tetraazatricyclo[7.4.0.0^2,6]trideca-1(9),3,5,7-tetraen-10-yl}phenyl)-2,2,2-trifluoroethyl]-N-methyl-1,1-dioxo-1λ^6-thiane-4-carboxamide]	5.67	5.48
O=C(N[C@@H](c1ccc(N2CCCc3c2cnc2cc(Cl)nn32)cc1)C(F)(F)F)C1CCS(=O)(=O)CC1 [CPD0021755, N-[(1S)-1-(4-{4-chloro-2,3,7,10-tetraazatricyclo[7.4.0.0^2,6]trideca-1(9),3,5,7-tetraen-10-yl}phenyl)-2,2,2-trifluoroethyl]-1,1-dioxo-1λ^e-thiane-4-carboxamide]	6.36	6.07
CN(C(=O)[C@H]1CCCS(=O)(=O)C1)[C@@H](c1ccc(N2CCCc3c2cnc2cc(Cl)nn32)cc1)C(F)(F)F [CPD0021809]	6.81	6.84
CN(C(=O)C1CCS(=N)(=O)CC1)[C@@H](c1ccc(N2CCCc3c2cnc2cc(Cl)nn32)cc1)C(F)(F)F (stereo partly shown) [CPD0021810]	7.20	6.71
CC1CCN(c2ccc([C@H](N(C)C(=O)C3CCS(=O)(=O)CC3)C(F)(F)F)cn2)c2cnc3cc(Cl)nn3c21 (stereo partly drawn) [CPD0021812, N-[(1S)-1-(6-{4-chloro-13-methyl-2,3,7,10-tetraazatricyclo[7.4.0.0^2,6]trideca-1(9),3,5,7-tetraen-10-yl}pyridin-3-yl)-2,2,2-trifluoroethyl]-N-methyl-1,1-dioxo-1λ^6-thiane-4-carboxamide]	6.97	6.67
CSc1cc2ncc3c(n2n1)CCCN3c1ccc([C@H](N(C)C(=O)C2CCS(=O)(=O)CC2)C(F)(F)F)cc1 [CPD0021815, N-methyl-1,1-dioxo-N-[(1S)-2,2,2-trifluoro-1-{4-[4-(methylsulfanyl)-2,3,7,10-tetraazatricyclo[7.4.0.0^2,6]trideca-1(9),3,5,7-tetraen-10-yl]phenyl}ethyl]-1λ^6-thiane-4-carboxamide]	6.48	6.64
CN(C(=O)CC1CCNC1)[C@@H](c1ccc(N2CCCc3c2cnc2cc(Cl)nn32)cc1)C(F)(F)F (stereo partly drawn) [CPD0021849, N-[(1S)-1-(4-{4-chloro-2,3,7,10-tetraazatricyclo[7.4.0.0^2,6]trideca-1(9),3,5,7-tetraen-10-yl}phenyl)-2,2,2-trifluoroethyl]-N-methyl-2-(pyrrolidin-3-yl)acetamide]	6.69	6.25
CN(C(=O)CC1CCOC1)[C@@H](c1ccc(N2CCCc3c2cnc2cc(Cl)nn32)cc1)C(F)(F)F (stereo partly drawn) [CPD0021874, N-[(1S)-1-(4-{4-chloro-2,3,7,10-tetraazatricyclo[7.4.0.0^2,6]trideca-1(9),3,5,7-tetraen-10-yl}phenyl)-2,2,2-trifluoroethyl]-N-methyl-2-(oxolan-3-yl)acetamide]	6.59	6.68
CN(C(=O)CC1CCCS1(=O)=O)[C@@H](c1ccc(N2CCCc3c2cnc2cc(Cl)nn32)cc1)C(F)(F)F (stereo partly drawn) [CPD0021934, N-[(1S)-1-(4-{4-chloro-2,3,7,10-tetraazatricyclo[7.4.0.0^2,6]trideca-1(9),3,5,7-tetraen-10-yl}phenyl)-2,2,2-trifluoroethyl]-2-(1,1-dioxo-1λ^6-thiolan-2-yl)-N-methylacetamide]	6.43	6.23
CN(C(=O)C1CCS(=O)(=O)CC1)[C@@H](c1ccc(N2CC(C)(C)Cc3c2cnc2cc(Cl)nn32)cc1)C(F)(F)F [CPD0022149, N-[(1S)-1-(4-{4-chloro-12,12-dimethyl-2,3,7,10-tetraazatricyclo[7.4.0.0^2,6]trideca-1(9),3,5,7-tetraen-10-yl}phenyl)-2,2,2-trifluoroethyl]-N-methyl-1,1-dioxo-1λ^6-thiane-4-carboxamide]	7.15	7.03
CN(C(=O)[C@H]1C[C@@](C)(O)C1)[C@@H](c1ccc(N2CCCc3c2cnc2cc(Cl)nn32)cc1)C(F)(F)F [CPD0072437, (1r,3s)-N-[(1S)-1-(4-{4-chloro-2,3,7,10-tetraazatricyclo[7.4.0.0^2,6]trideca-1(9),3,5,7-tetraen-10-yl}phenyl)-2,2,2-trifluoroethyl]-3-hydroxy-N,3-dimethylcyclobutane-1-carboxamide]	6.91	6.75
CN(C(=O)[C@H]1C[C@H](C(=O)O)C1)[C@@H](c1ccc(N2CCCc3c2cnc2cc(Cl)nn32)cc1)C(F)(F)F [CPD0072439, (trans)-3-{[(1S)-1-(4-{4-chloro-2,3,7,10-tetraazatricyclo[7.4.0.0^2,6]trideca-1(9),3,5,7-tetraen-10-yl}phenyl)-2,2,2-trifluoroethyl](methyl)carbamoyl}cyclobutane-1-carboxylic acid]	7.46	6.25
CN(C(=O)[C@H]1C[C@](O)(C(F)(F)F)C1)[C@@H](c1ccc(N2CCCc3c2cnc2cc(Cl)nn32)cc1)C(F)(F)F [CPD0072441, (1s,3s)-N-[(1S)-1-(4-{4-chloro-2,3,7,10-tetraazatricyclo[7.4.0.0^2,6]trideca-1(9),3,5,7-tetraen-10-yl}phenyl)-2,2,2-trifluoroethyl]-3-hydroxy-N-methyl-3-(trifluoromethyl)cyclobutane-1-carboxamide]	6.95	6.65
CN(C(=O)[C@H]1CC[C@H](C(=O)O)CC1)[C@@H](c1ccc(N2CCCc3c2cnc2cc(Cl)nn32)cc1)C(F)(F)F [CPD0072442, (1r,4r)-4-{[(1S)-1-(4-{4-chloro-2,3,7,10-tetraazatricyclo[7.4.0.0^2,6]trideca-1(9),3,5,7-tetraen-10-yl}phenyl)-2,2,2-trifluoroethyl](methyl)carbamoyl}cyclohexane-1-carboxylic acid]	7.37	6.52
COc1ccc2ncc3c(c2n1)C(O)CCN3c1ccc([C@H](N(C)C(=O)C2CCS(=O)(=O)CC2)C(F)(F)F)cc1 (stereo partly drawn) [CPD0072449, N-methyl-1,1-dioxo-N-[(1S)-2,2,2-trifluoro-1-[4-(10-hydroxy-2-methoxy-9,10-dihydro-8H-pyrido[2,3-f][1,7]naphthyridin-7-yl)phenyl]ethyl]thiane-4-carboxamide]	6.36	6.03
CN(C(=O)C1CC(C(=O)O)C1)[C@@H](c1ccc(N2CCCc3c2cnc2cc(Cl)nn32)cc1)C(F)(F)F (stereo partly shown) [CPD0072461]	7.20	6.14
COC(C)c1c(Nc2ccc([C@H](N(C)C(=O)C3CCS(=O)(=O)CC3)C(F)(F)F)cc2)cnn2cc(Cl)nc12 (stereo partly drawn) [CPD0072526, N-[(1S)-1-[4-[[2-chloro-8-(1-methoxyethyl)imidazo[1,2-b]pyridazin-7-yl]amino]phenyl]-2,2,2-trifluoro-ethyl]-N-methyl-1,1-dioxo-thiane-4-carboxamide]	7.33	7.15

From patent US20250051327A1, “MALT-1 MODULATORS” (EXSCIENTIA AI LIMITED, priority 2020, published 2025)
